From US11000033B2, “Ketone or oxime compound, and herbicide” (NISSAN CHEMICAL CORPORATION, priority 2014, dated 2021)

Experiments:
Format in all cases: in vivo
[1] = test system: Galium spurium; test: Test Example 4: herbicidal effect by soil treatment (symbol Q)
How it was run: (§1)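 Seeds were sown in sterilized diluvial soil, covered with about 1.5 cm of soil, and the soil surface was sprayed with a water-diluted emulsion of the compound at a predetermined rate. Plants grew in a greenhouse at 25° C. to 30° C.; effects were scored visually 3 weeks after application.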

[2] = test system: Alopecurus myosuroides; test: Test Example 4: herbicidal effect by soil treatment (symbol J)
How it was run: as §1

[3] = test system: rapeseed; test: Test Example 4: effect on crop by soil treatment (symbol g); details: for g: rapeseed, effect grade on crop: 320 g/ha
How it was run: (§2)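 Greenhouse culture at 25° C. to 30° C. followed sowing of seed in spots on sterilized diluvial soil with a soil cover close to 1.5 cm thick.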

[4] = test system: corn; test: Test Example 5: effect on crop by foliage application, plastic box (symbol c); details: 320 g/ha, 3 weeks after application
How it was run: (§3)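 Diluvial soil, sterilized and boxed (21 × 13 × 7 cm), received spot-sown seed covered by about 1.5 cm soil; plants were then greenhouse-grown at 25–30° C.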

[5] = test system: transplanted rice plant; test: Test Example 1: effect on crop, application before weed generation in submerged conditions (symbol a); details: application herbicide amount 320 g/ha
How it was run: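 Alluvial soil pots flooded to 4 cm water, sown with Echinochloa oryzacola, Scirpus juncoides and Monochoria vaginalis, then transplanted with 2.5 leaf stage rice seedlings; pre-emergence application. Greenhouse 25° C. to 30° C.; scored 0–5 by herbicidal ratio 3 weeks after application.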

[6] = test system: Veronica persica; test: Test Example 5: herbicidal effect by foliage application, plastic box (symbol R); details: 320 g/ha, 3 weeks after application
How it was run: (§4)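 After sowing into sterilized diluvial soil and growing two weeks under glass at 25° C. to 30° C., seedlings receive a uniform foliar spray of diluted emulsion. Damage is judged visually three weeks on.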

[7] = test system: wheat; test: Test Example 5: effect on crop by foliage application, plastic box (symbol e); details: 320 g/ha, 3 weeks after application
How it was run: as §3

[8] = test system: Lolium multiflorum Lam.; test: Test Example 5: herbicidal effect by foliage application, plastic box (symbol K); details: 320 g/ha, 3 weeks after application
How it was run: as §4

[9] = test system: corn; test: Test Example 4: effect on crop by soil treatment (symbol c); details: for c: corn, effect grade on crop: 320 g/ha
How it was run: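 Steps: fill box with sterilized diluvial soil; sow seed spot-like; cover with ~1.5 cm soil; grow in greenhouse (25° C. to 30° C.).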

[10] = test system: beet; test: Test Example 5: effect on crop by foliage application, plastic box (symbol f); details: 320 g/ha, 3 weeks after application
How it was run: as §3

[11] = test system: Alopecurus myosuroides; test: Test Example 5: herbicidal effect by foliage application, plastic box (symbol J); details: 320 g/ha, 3 weeks after application
How it was run: as §4

[12] = test system: rice; test: Test Example 4: effect on crop by soil treatment (symbol b); details: for b: directly sowed rice plant, effect grade on crop: 320 g/ha
How it was run: as §2

[13] = test system: Digitaria ciliaris; test: Test Example 4: herbicidal effect by soil treatment (symbol F)
How it was run: as §1

[14] = test system: Scirpus juncoides; test: Test Example 2: herbicidal activity, application during weed generation in submerged conditions (symbol B); details: Table 23; application herbicide amount 320 g/ha; grade 0-5 by criteria of Test Example 1
How it was run: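 Flooded-soil post-emergence test: emulsion of compound, water-diluted to target rate, applied to paddy water surface at 1–2 leaf stage of mixed-sown weeds (alluvial soil, 4 cm water, 25–30° C. greenhouse); visual rating 3 weeks after application.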

[15] = test system: Veronica persica; test: Test Example 4: herbicidal effect by soil treatment (symbol R)
How it was run: as §1

[16] = application herbicide amount 320 g/ha

Compound	Q: Galium spurium, herbicidal effect grade ([1]; 320 g/ha)	J: Alopecurus myosuroides, herbicidal effect grade ([2]; 320 g/ha)	g: rapeseed, effect grade on crop [3]	c: corn, effect on crop (criteria 0-5) [4]	Effect grade on crop, a: transplanted rice plant [5]	R: Veronica persica, herbicidal effect (criteria 0-5) [6]	e: wheat, effect on crop (criteria 0-5) [7]	K: Lolium multiflorum Lam., herbicidal effect (criteria 0-5) [8]	c: corn, effect grade on crop [9]	f: beet, effect on crop (criteria 0-5) [10]	J: Alopecurus myosuroides, herbicidal effect (criteria 0-5) [11]	b: directly sowed rice plant, effect grade on crop [12]	F: Digitaria ciliaris, herbicidal effect grade ([13]; 320 g/ha)	Herbicidal effect grade, B: Scirpus juncoides [14]	R: Veronica persica, herbicidal effect grade ([15]; 320 g/ha)	further results
CON=C(C)CC1CC(OS(=O)(=O)CCCCl)=C(c2c(C)cc(C)cc2C)C1=O (stereo not drawn) [1-142]	0 (Herbicidal ratio of 5% or lower (almost no effect))	5 (Herbicidal ratio of 90% or more (almost completely withered))	3 (Herbicidal ratio of 40% or higher and lower than 70%)	5 (Herbicidal ratio of 90% or more (almost completely withered))	5 (Herbicidal ratio of 90% or more (almost completely withered))	3 (Herbicidal ratio of 40% or higher and lower than 70%)	4 (Herbicidal ratio of 70% or higher and lower than 90%)	5 (Herbicidal ratio of 90% or more (almost completely withered))	0 (Herbicidal ratio of 5% or lower (almost no effect))	3 (Herbicidal ratio of 40% or higher and lower than 70%)	5 (Herbicidal ratio of 90% or more (almost completely withered))	5 (Herbicidal ratio of 90% or more (almost completely withered))	5 (Herbicidal ratio of 90% or more (almost completely withered))	4 (Herbicidal ratio of 70% or higher and lower than 90%)	0 (Herbicidal ratio of 5% or lower (almost no effect))	–
C=CCN(CC=C)C(=O)OC1=C(c2c(C)cc(C)cc2C)C(=O)C(CC(C)=NOC)C1 (stereo not drawn) [1-153]	0 (Herbicidal ratio of 5% or lower (almost no effect))	3 (Herbicidal ratio of 40% or higher and lower than 70%)	0 (Herbicidal ratio of 5% or lower (almost no effect))	3 (Herbicidal ratio of 40% or higher and lower than 70%)	4 (Herbicidal ratio of 70% or higher and lower than 90%)	0 (Herbicidal ratio of 5% or lower (almost no effect))	5 (Herbicidal ratio of 90% or more (almost completely withered))	5 (Herbicidal ratio of 90% or more (almost completely withered))	0 (Herbicidal ratio of 5% or lower (almost no effect))	0 (Herbicidal ratio of 5% or lower (almost no effect))	5 (Herbicidal ratio of 90% or more (almost completely withered))	1 (Herbicidal ratio of 5% or higher and lower than 20%)	5 (Herbicidal ratio of 90% or more (almost completely withered))	1 (Herbicidal ratio of 5% or higher and lower than 20%)	0 (Herbicidal ratio of 5% or lower (almost no effect))	–
CON=C(C)CC1CC(OC(=O)N2CCCCC2)=C(c2c(C)cc(C)cc2C)C1=O (stereo not drawn) [1-151]	0 (Herbicidal ratio of 5% or lower (almost no effect))	5 (Herbicidal ratio of 90% or more (almost completely withered))	0 (Herbicidal ratio of 5% or lower (almost no effect))	4 (Herbicidal ratio of 70% or higher and lower than 90%)	4 (Herbicidal ratio of 70% or higher and lower than 90%)	1 (Herbicidal ratio of 5% or higher and lower than 20%)	3 (Herbicidal ratio of 40% or higher and lower than 70%)	5 (Herbicidal ratio of 90% or more (almost completely withered))	0 (Herbicidal ratio of 5% or lower (almost no effect))	2 (Herbicidal ratio of 20% or higher and lower than 40%)	5 (Herbicidal ratio of 90% or more (almost completely withered))	1 (Herbicidal ratio of 5% or higher and lower than 20%)	5 (Herbicidal ratio of 90% or more (almost completely withered))	1 (Herbicidal ratio of 5% or higher and lower than 20%)	0 (Herbicidal ratio of 5% or lower (almost no effect))	–
CON=C(C)CC1CC(O)=C(c2c(C)cc(-c3ccc(C(F)(F)F)cc3)cc2C)C1=O (mixture of isomers) [6-016]	–	–	–	–	4 (Herbicidal ratio of 70% or higher and lower than 90%)	–	–	–	–	–	–	–	–	0 (Herbicidal ratio of 5% or lower (almost no effect))	–	Q: Galium spurium, herbicidal effect grade [1, 16]: 0 (Herbicidal ratio of 5% or lower (almost no effect)); J: Alopecurus myosuroides, herbicidal effect grade [2, 16]: 0 (Herbicidal ratio of 5% or lower (almost no effect)); g: rapeseed, effect on crop grade [3, 16]: 0 (Herbicidal ratio of 5% or lower (almost no effect)); c: corn, effect on crop grade [4]: 5 (Herbicidal ratio of 90% or more (almost completely withered)); R: Veronica persica, herbicidal effect grade [6]: 3 (Herbicidal ratio of 40% or higher and lower than 70%); e: wheat, effect on crop grade [7]: 0 (Herbicidal ratio of 5% or lower (almost no effect)); K: Lolium multiflorum Lam., herbicidal effect grade [8]: 5 (Herbicidal ratio of 90% or more (almost completely withered)); c: corn, effect on crop grade [9, 16]: 0 (Herbicidal ratio of 5% or lower (almost no effect)); f: beet, effect on crop grade [10]: 0 (Herbicidal ratio of 5% or lower (almost no effect)); J: Alopecurus myosuroides, herbicidal effect grade [11]: 1 (Herbicidal ratio of 5% or higher and lower than 20%); b: directly sowed rice plant, effect on crop grade [12, 16]: 2 (Herbicidal ratio of 20% or higher and lower than 40%); F: Digitaria ciliaris, herbicidal effect grade [13, 16]: 5 (Herbicidal ratio of 90% or more (almost completely withered)); R: Veronica persica, herbicidal effect grade [15, 16]: 0 (Herbicidal ratio of 5% or lower (almost no effect))
CON=C(C)CC1CC(OS(=O)(=O)CC[Si](C)(C)C)=C(c2c(C)cc(C)cc2C)C1=O (stereo not drawn) [1-144]	0 (Herbicidal ratio of 5% or lower (almost no effect))	4 (Herbicidal ratio of 70% or higher and lower than 90%)	2 (Herbicidal ratio of 20% or higher and lower than 40%)	5 (Herbicidal ratio of 90% or more (almost completely withered))	5 (Herbicidal ratio of 90% or more (almost completely withered))	3 (Herbicidal ratio of 40% or higher and lower than 70%)	4 (Herbicidal ratio of 70% or higher and lower than 90%)	5 (Herbicidal ratio of 90% or more (almost completely withered))	3 (Herbicidal ratio of 40% or higher and lower than 70%)	2 (Herbicidal ratio of 20% or higher and lower than 40%)	5 (Herbicidal ratio of 90% or more (almost completely withered))	5 (Herbicidal ratio of 90% or more (almost completely withered))	5 (Herbicidal ratio of 90% or more (almost completely withered))	4 (Herbicidal ratio of 70% or higher and lower than 90%)	0 (Herbicidal ratio of 5% or lower (almost no effect))	–
